Test results: the supplement of paper PMC11451515

System: SEM cells
Assay: cell viability relative to DMSO control; higher = less cytotoxic
Settings: 48 h
Outline: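 NOMO1 or SEM (500 cells/well) or P12-Ichikawa (1000 cells/well) leukemia cells were adapted for at least four passages in each medium. They were seeded in 1536-well plates (5 μl) and pin-dosed with library compounds in DMSO over an 11-point threefold series, 47 μM to 0.79 nM. CellTiter-Glo One luminescence was read after 48 h at 37°C. Viability is the per-plate percentage relative to DMSO wells, with cell-free wells as background.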

[1] = HPLM + 10% dialyzed FBS, 0.000781 µM
[2] = HPLM + 10% dialyzed FBS, 0.00234 µM
[3] = HPLM + 10% dialyzed FBS, 0.00702 µM
[4] = HPLM + 10% dialyzed FBS, 0.0211 µM
[5] = HPLM + 10% dialyzed FBS, 0.0632 µM
[6] = HPLM + 10% dialyzed FBS, 0.19 µM
[7] = HPLM + 10% dialyzed FBS, 0.569 µM
[8] = HPLM + 10% dialyzed FBS, 1.71 µM
[9] = HPLM + 10% dialyzed FBS, 5.12 µM
[10] = HPLM + 10% dialyzed FBS, 15.4 µM
[11] = HPLM + 10% dialyzed FBS, 46.1 µM
[12] = RPMI 5 mM glucose + 10% FBS, 0.000781 µM
[13] = RPMI 5 mM glucose + 10% FBS, 0.00234 µM
[14] = RPMI 5 mM glucose + 10% FBS, 0.00702 µM
[15] = RPMI 5 mM glucose + 10% FBS, 0.0211 µM
[16] = RPMI 5 mM glucose + 10% FBS, 0.0632 µM
[17] = RPMI 5 mM glucose + 10% FBS, 0.19 µM
[18] = RPMI 5 mM glucose + 10% FBS, 0.569 µM
[19] = RPMI 5 mM glucose + 10% FBS, 1.71 µM
[20] = RPMI 5 mM glucose + 10% FBS, 5.12 µM
[21] = RPMI 5 mM glucose + 10% FBS, 15.4 µM
[22] = RPMI 5 mM glucose + 10% FBS, 46.1 µM
[23] = RPMI 5 mM glucose + 10% dialyzed FBS, 0.000781 µM
[24] = RPMI 5 mM glucose + 10% dialyzed FBS, 0.00234 µM
[25] = RPMI 5 mM glucose + 10% dialyzed FBS, 0.00702 µM
[26] = RPMI 5 mM glucose + 10% dialyzed FBS, 0.0211 µM
[27] = RPMI 5 mM glucose + 10% dialyzed FBS, 0.0632 µM
[28] = RPMI 5 mM glucose + 10% dialyzed FBS, 0.19 µM
[29] = RPMI 5 mM glucose + 10% dialyzed FBS, 0.569 µM
[30] = RPMI 5 mM glucose + 10% dialyzed FBS, 1.71 µM
[31] = RPMI 5 mM glucose + 10% dialyzed FBS, 5.12 µM
[32] = RPMI 5 mM glucose + 10% dialyzed FBS, 15.4 µM
[33] = RPMI 5 mM glucose + 10% dialyzed FBS, 46.1 µM

O=C1Nc2cc(Br)ccc2/C1=C1/Nc2ccccc2/C1=N\O gave a cell viability [1] of 109%, a cell viability [2] of 102% and a cell viability [3] of 110%. For the same compound, the cell viability [4] was 100%, the cell viability [5] was 108% and the cell viability [6] was 78.5%. For the same compound, the cell viability [7] was 66.5%, the cell viability [8] was 31.5% and the cell viability [9] was 4.61%. It also gave a cell viability [10] of 3.01%, a cell viability [11] of 1.68% and a cell viability [12] of 87.2%. It also gave a cell viability [13] of 113%, a cell viability [14] of 110% and a cell viability [15] of 95.3%. It also gave a cell viability [16] of 98.4%, a cell viability [17] of 98.8% and a cell viability [18] of 60%. The cell viability [19] was 21.3%, the cell viability [20] was 2.47% and the cell viability [21] was 1.39%. The cell viability [22] was 0.712%, the cell viability [23] was 111% and the cell viability [24] was 102%. For the same compound, the cell viability [25] was 89.9%, the cell viability [26] was 99.4% and the cell viability [27] was 90.5%. The cell viability [28] was 69.9%, the cell viability [29] was 64.9% and the cell viability [30] was 34.8%. For the same compound, the cell viability [31] was 4.53%, the cell viability [32] was 2.51% and the cell viability [33] was 1.3%.
CC(C)C[C@H](NC(=O)[C@@H](NC(=O)c1cccc(-c2ccccc2)n1)[C@@H](C)O)B(O)O was tested, and the cell viability [1] was 98.1%, the cell viability [2] was 110% and the cell viability [3] was 108%. For the same compound, the cell viability [4] was 31.3%, the cell viability [5] was 9.24% and the cell viability [6] was 8.75%. It also gave a cell viability [7] of 8.47%, a cell viability [8] of 8.47% and a cell viability [9] of 7.07%. It also gave a cell viability [10] of 4.73%, a cell viability [11] of 3.46% and a cell viability [12] of 93%. It also gave a cell viability [13] of 107%, a cell viability [14] of 99% and a cell viability [15] of 18.2%. For the same compound, the cell viability [16] was 9.27%, the cell viability [17] was 9.18% and the cell viability [18] was 8.81%. For the same compound, the cell viability [19] was 8.15%, the cell viability [20] was 6.37% and the cell viability [21] was 4.03%. It also gave a cell viability [22] of 3.46%, a cell viability [23] of 87.3% and a cell viability [24] of 100%. It also gave a cell viability [25] of 95.9%, a cell viability [26] of 28.4% and a cell viability [27] of 9.88%. For the same compound, the cell viability [28] was 9.98%, the cell viability [29] was 9.77% and the cell viability [30] was 9.35%. The cell viability [31] was 6.09%, the cell viability [32] was 3.83% and the cell viability [33] was 3.48%.
With CCN(CC)C(=S)SSC(=S)N(CC)CC the cell viability [1] was 99.8%, the cell viability [2] was 99.4% and the cell viability [3] was 115%. The cell viability [4] was 108%, the cell viability [5] was 102% and the cell viability [6] was 85.6%. For the same compound, the cell viability [7] was 55.2%, the cell viability [8] was 40.4% and the cell viability [9] was 4.49%. For the same compound, the cell viability [10] was 3.73%, the cell viability [11] was 2.19% and the cell viability [12] was 74.9%. It also gave a cell viability [13] of 74.3%, a cell viability [14] of 78.7% and a cell viability [15] of 79.2%. For the same compound, the cell viability [16] was 73.5%, the cell viability [17] was 55.6% and the cell viability [18] was 48.6%. The cell viability [19] was 32.9%, the cell viability [20] was 2.66% and the cell viability [21] was 1.26%. The cell viability [22] was 0.625%, the cell viability [23] was 87.8% and the cell viability [24] was 97.9%. For the same compound, the cell viability [25] was 97.2%, the cell viability [26] was 103% and the cell viability [27] was 99.3%. For the same compound, the cell viability [28] was 76.6%, the cell viability [29] was 44.3% and the cell viability [30] was 33.5%. It also gave a cell viability [31] of 3.67%, a cell viability [32] of 2.09% and a cell viability [33] of 1.26%.
CO[C@H]1C[C@@H]2CC[C@@H](C)[C@@](O)(O2)C(=O)C(=O)N2CCCC[C@H]2C(=O)O[C@H]([C@H](C)C[C@@H]2CC[C@@H](OC(=O)C(C)(CO)CO)[C@H](OC)C2)CC(=O)[C@H](C)/C=C(\C)[C@@H](O)[C@@H](OC)C(=O)[C@H](C)C[C@H](C)/C=C/C=C/C=C/1C showed a cell viability [1] of 80.2%, a cell viability [2] of 93.3% and a cell viability [3] of 88%. It also gave a cell viability [4] of 77.7%, a cell viability [5] of 76.5% and a cell viability [6] of 74.5%. For the same compound, the cell viability [7] was 64.7%, the cell viability [8] was 55.4% and the cell viability [9] was 57.7%. For the same compound, the cell viability [10] was 49.1%, the cell viability [11] was 41.6% and the cell viability [12] was 71.2%. For the same compound, the cell viability [13] was 78.2%, the cell viability [14] was 70.1% and the cell viability [15] was 61.6%. The cell viability [16] was 60.5%, the cell viability [17] was 56.3% and the cell viability [18] was 57.7%. It also gave a cell viability [19] of 52.4%, a cell viability [20] of 50.5% and a cell viability [21] of 27.3%. The cell viability [22] was 15.7%, the cell viability [23] was 87.4% and the cell viability [24] was 97.1%. The cell viability [25] was 91.2%, the cell viability [26] was 73.1% and the cell viability [27] was 84.6%. It also gave a cell viability [28] of 83.1%, a cell viability [29] of 64.4% and a cell viability [30] of 61.8%. For the same compound, the cell viability [31] was 67.4%, the cell viability [32] was 58.4% and the cell viability [33] was 23.2%.
CC(C)(C)c1cc(C=C(C#N)C#N)cc(Br)c1O gave a cell viability [1] of 87%, a cell viability [2] of 109% and a cell viability [3] of 42.3%. For the same compound, the cell viability [4] was 114%, the cell viability [5] was 111% and the cell viability [6] was 109%. For the same compound, the cell viability [7] was 114%, the cell viability [8] was 110% and the cell viability [9] was 111%. The cell viability [10] was 108%, the cell viability [11] was 104% and the cell viability [12] was 65.4%. The cell viability [13] was 72.7%, the cell viability [14] was 11.9% and the cell viability [15] was 67.3%. It also gave a cell viability [16] of 90.6%, a cell viability [17] of 81.4% and a cell viability [18] of 83.8%. It also gave a cell viability [19] of 77.4%, a cell viability [20] of 71.5% and a cell viability [21] of 77.7%. For the same compound, the cell viability [22] was 77.5%, the cell viability [23] was 87.3% and the cell viability [24] was 98.8%. The cell viability [25] was 35.7%, the cell viability [26] was 111% and the cell viability [27] was 108%. For the same compound, the cell viability [28] was 123%, the cell viability [29] was 119% and the cell viability [30] was 107%. For the same compound, the cell viability [31] was 105%, the cell viability [32] was 115% and the cell viability [33] was 90.7%.
CC(=O)N1CCN(c2ccc(OCc3nn(C)c(C)c3-c3cccc4c(CCCOc5cccc6ccccc56)c(C(=O)O)n(Cc5cccnc5)c34)cc2)CC1 showed a cell viability [1] of 92.6%, a cell viability [2] of 91.9% and a cell viability [3] of 106%. It also gave a cell viability [4] of 112%, a cell viability [5] of 107% and a cell viability [6] of 126%. For the same compound, the cell viability [7] was 115%, the cell viability [8] was 120% and the cell viability [9] was 122%. It also gave a cell viability [10] of 108%, a cell viability [11] of 108% and a cell viability [12] of 87.6%. For the same compound, the cell viability [13] was 78%, the cell viability [14] was 86.4% and the cell viability [15] was 93.6%. It also gave a cell viability [16] of 81.8%, a cell viability [17] of 103% and a cell viability [18] of 108%. It also gave a cell viability [19] of 115%, a cell viability [20] of 105% and a cell viability [21] of 104%. The cell viability [22] was 84.7%, the cell viability [23] was 101% and the cell viability [24] was 85.1%. For the same compound, the cell viability [25] was 115%, the cell viability [26] was 112% and the cell viability [27] was 119%. The cell viability [28] was 127%, the cell viability [29] was 112% and the cell viability [30] was 115%. The cell viability [31] was 109%, the cell viability [32] was 113% and the cell viability [33] was 104%.
